Experimental data as given in PMC10119282, “Molecular characterization of AIFM2/FSP1 inhibition by iFSP1-like molecules” (Cell Death & Disease, 2023).

Experiments:
[1] = system: Pfa1 Gpx4−/− cell line overexpressing hFSP1, mFSP1 and hFSP1 F360L mutants; assay: BODIPY 581/591 C11 oxidation (flow cytometry); type: cell-based, murine; conditions: iFSP1 3 µM for 3 h; all conditions, highest for hFSP1 WT
Description: In total, 150,000 cells per well were seeded on 6-well dishes one day prior to the experiment. […] Cells were incubated with C11-BODIPY (581/591) (1 μM) for 30 min at 37 °C before they were harvested by trypsinisation. Subsequently, cells were resuspended in 500 μL of fresh PBS (DPBS, Gibco) and analyzed using a 488-nm laser excitation laser and fluorescence recorded on a (FACS Canto II, BD Biosciences). Data was collected from the FL1 detector (C11-BODIPY, Invitrogen) with a 502LP and 530/30 BP filter. At least 20,000 events were analyzed per sample. Data was analyzed using FlowJo Software version 10.8.1.

[2] = system: Pfa1 Gpx4−/− overexpressing chimeric FSP1 C4; assay: Cell viability (Alamar blue), chimeric construct C4; type: cell-based, murine; conditions: Mus musculus; chimeric construct C4 (human residues 181 to 240); x axis iFSP1 (μM); read-out: IC50 (dose-response toxicity)
Description: Cell Lines. 4-hydroxytamoxifen (TAM)-inducible Gpx4^−/− murine immortalized fibroblasts (Pfa1) were reported previously. These cells harbor two loxP-flanked Gpx4 alleles and stably express TAM inducible Cre recombinase allowing the genetic deletion of Gpx4 at will. For all experiments using Gpx4^−/− the well were treated with 4-hydroxitamoxifen (TAM) 1 µM. All cells were cultured with were cultured in DMEM-high glucose (4.5 g glucose/L) with 10% fetal bovine serum (FBS), Glutamax, and 1% penicillin/streptomycin (Gibco, Thermo Fischer) at 37 °C with 5% CO2 and verified to be negative for mycoplasma.
Cell viability assays. Alamar Blue method: Cells were seeded on 96-well plates (2000 cells per well) and treated with the compounds RSL3, iFSP1 and (liproxstatin-1) after plating. Cell viability was assessed 48 h (unless stated otherwise) after treatment using Alamar Blue as an indicator of viable cells. Alamar blue solution was made by dissolving of 1 g resazurin sodium salt (Thermo Fischer) in 200 mL sterile PBS and sterile filtrated through a 0.22 µm filter. Stock solutions were stored at 4 °C. The working solution was made freshly by adding 200 µL of the stock solution to 25 mL growth media. After 2–4 h incubation time, viability was estimated by measuring the fluorescence using a 540/35 excitation filter and a 590/20 emission on a Spark® microplate reader (Tecan, Zürich, Switzerland). […]

`Cc1ccc(-c2c(C#N)c(N)n3c(nc4ccccc43)c2C#N)cc1` [iFSP1] was tested, and the “BODIPY-C11 oxidation induced by iFSP1” value [1] was “small increase” and the IC50 [2] was 8.96 µM.
